PubChem BioAssay AID2060887 (Molecular Pharmacology Branch, DTP, NCI, 2025)
Values joined by “and” are separate entries in the source; they are usually repeats but may differ in a detail not shown here. Identical values can stand only once.

Test system: 782815-120-R-J1-PDC complex spheroid viability
Assay: Anticancer human tumor 782815-120-R-J1-PDC patient-derived colon adenocarcinoma cell line growth inhibition [RAS]
Details: for viability, T/C: stronger effect = lower value; active means viability on the fitted dose curve at most 10% of control; inactive means the rest
In short: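 Multi-cell-type spheroids: tumor cells plus HUVEC endothelial cells and mesenchymal stem cells. RAS-pathway inhibitors were combined with targeted agents, each dosed in half-log steps down from clinical Cmax, or from 10 microM when Cmax was unknown.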

[1] = curve of first compound, second compound 0.000949 µM
[2] = curve of first compound, second compound 0.003 µM
[3] = curve of first compound, second compound 0.00949 µM
[4] = curve of first compound, second compound 0.03 µM
[5] = curve of first compound, second compound 0.0949 µM
[6] = curve of first compound, second compound 0.3 µM
[7] = second compound 0.000949 µM, first compound 0.0316 µM
[8] = second compound 0.000949 µM, first compound 0.1 µM
[9] = second compound 0.000949 µM, first compound 0.316 µM
[10] = second compound 0.000949 µM, first compound 1 µM
[11] = second compound 0.000949 µM, first compound 3.16 µM
[12] = second compound 0.000949 µM, first compound 10 µM
[13] = second compound 0.003 µM, first compound 0.0316 µM
[14] = second compound 0.003 µM, first compound 0.1 µM
[15] = second compound 0.003 µM, first compound 0.316 µM
[16] = second compound 0.003 µM, first compound 1 µM
[17] = second compound 0.003 µM, first compound 3.16 µM
[18] = second compound 0.003 µM, first compound 10 µM
[19] = second compound 0.00949 µM, first compound 0.0316 µM
[20] = second compound 0.00949 µM, first compound 0.1 µM
[21] = second compound 0.00949 µM, first compound 0.316 µM
[22] = second compound 0.00949 µM, first compound 1 µM
[23] = second compound 0.00949 µM, first compound 3.16 µM
[24] = second compound 0.00949 µM, first compound 10 µM
[25] = second compound 0.03 µM, first compound 0.0316 µM
[26] = second compound 0.03 µM, first compound 0.1 µM
[27] = second compound 0.03 µM, first compound 0.316 µM
[28] = second compound 0.03 µM, first compound 1 µM
[29] = second compound 0.03 µM, first compound 3.16 µM
[30] = second compound 0.03 µM, first compound 10 µM
[31] = second compound 0.0949 µM, first compound 0.0316 µM
[32] = second compound 0.0949 µM, first compound 0.1 µM
[33] = second compound 0.0949 µM, first compound 0.316 µM
[34] = second compound 0.0949 µM, first compound 1 µM
[35] = second compound 0.0949 µM, first compound 3.16 µM
[36] = second compound 0.0949 µM, first compound 10 µM
[37] = second compound 0.3 µM, first compound 0.0316 µM
[38] = second compound 0.3 µM, first compound 0.1 µM
[39] = second compound 0.3 µM, first compound 0.316 µM
[40] = second compound 0.3 µM, first compound 1 µM
[41] = second compound 0.3 µM, first compound 3.16 µM
[42] = second compound 0.3 µM, first compound 10 µM
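Further: spheroids exposed to compounds for 7 days before reading.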
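Wherever viability, T/C is given: 100% = DMSO vehicle control viability.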

CC(Nc1ccc2c(c1)OCCn1cc(N3C(=O)OCC3C(F)F)nc1-2)C(N)=O (stereo not given) + CCn1c(-c2cc(N3CCN(C)CC3)cnc2C(C)OC)c2c3cc(ccc31)-c1csc(n1)CC(NC(=O)C1CC1C)C(=O)N1CCCC(N1)C(=O)OCC(C)(C)C2
> 10000 nM: IC50 [1]
inactive: viability, T/C [7] 75.1% | viability, T/C [8] 73.5% | viability, T/C [9] 76% | viability, T/C [10] 62.9% | viability, T/C [11] 73.8% | viability, T/C [12] 78.5% | viability, T/C [13] 53.1% | viability, T/C [14] 54.9% | viability, T/C [15] 46.4% | viability, T/C [16] 47.5% | viability, T/C [17] 45.1% | viability, T/C [18] 51.8% | viability, T/C [19] 29.8% | viability, T/C [20] 31.2% | viability, T/C [21] 27.9% | viability, T/C [22] 24.9% | viability, T/C [23] 24.1% | viability, T/C [24] 25.3% | viability, T/C [25] 19.8% | viability, T/C [26] 18.4% | viability, T/C [27] 15% | viability, T/C [28] 15.6% | viability, T/C [29] 16.2% | viability, T/C [30] 13.1% | viability, T/C [31] 15.4% | viability, T/C [32] 15.1% | viability, T/C [33] 11.4% | viability, T/C [34] 11.5% | viability, T/C [35] 13.5% | viability, T/C [36] 11.9% | viability, T/C [37] 15.6% | viability, T/C [38] 13% | viability, T/C [39] 10.1% | viability, T/C [40] 11.8% | viability, T/C [41] 11.9% | viability, T/C [42] 11.8%
195 nM: IC50 [2]
< 31.6 nM: IC50 [3] | IC50 [4] | IC50 [5] | IC50 [6]

CC(C)NCC(C(=O)N1CCN(c2ncnc3c2C(C)CC3O)CC1)c1ccc(Cl)cc1 (stereo not given) + CCn1c(-c2cc(N3CCN(C)CC3)cnc2C(C)OC)c2c3cc(ccc31)-c1csc(n1)CC(NC(=O)C1CC1C)C(=O)N1CCCC(N1)C(=O)OCC(C)(C)C2
> 10000 nM: IC50 [1] | IC50 [2]
< 31.6 nM: IC50 [3] | IC50 [4] | IC50 [5] | IC50 [6]
inactive: viability, T/C [7] 79.6% | viability, T/C [8] 77.7% | viability, T/C [9] 74.5% | viability, T/C [10] 71.6% | viability, T/C [11] 77.4% | viability, T/C [12] 87.9% | viability, T/C [13] 57.2% | viability, T/C [14] 54.8% | viability, T/C [15] 61.9% | viability, T/C [16] 50.3% | viability, T/C [17] 57.2% | viability, T/C [18] 51.3% | viability, T/C [19] 34.2% | viability, T/C [20] 33.1% | viability, T/C [21] 35.3% | viability, T/C [22] 30.1% | viability, T/C [23] 30% | viability, T/C [24] 26.4% | viability, T/C [25] 20.2% | viability, T/C [26] 19.9% | viability, T/C [27] 19.1% | viability, T/C [28] 17.2% | viability, T/C [29] 16.5% | viability, T/C [30] 16.1% | viability, T/C [31] 17.2% | viability, T/C [32] 17.7% | viability, T/C [33] 18.8% | viability, T/C [34] 15% | viability, T/C [35] 16.1% | viability, T/C [36] 11% | viability, T/C [37] 18.3% | viability, T/C [38] 17.4% | viability, T/C [39] 15.3% | viability, T/C [40] 14.8% | viability, T/C [41] 14.3% | viability, T/C [42] 8.75%

CCC(CC)c1cc(NC2CCC(N)C2)n2nccc2n1 (stereo not given) + CCn1c(-c2cc(N3CCN(C)CC3)cnc2C(C)OC)c2c3cc(ccc31)-c1csc(n1)CC(NC(=O)C1CC1C)C(=O)N1CCCC(N1)C(=O)OCC(C)(C)C2
active: viability, T/C [12] 1.4% | viability, T/C [18] 1.08% | viability, T/C [24] 1.2% | viability, T/C [29] 3.02% | viability, T/C [30] 1.53% | viability, T/C [35] 2.74% | viability, T/C [36] 1.31% | viability, T/C [40] 15.2% | viability, T/C [41] 1.69% | viability, T/C [42] 1.33%
< 31.6 nM: IC50 [3] | IC50 [4] | IC50 [5] | IC50 [6]
inactive: viability, T/C [7] 69.7% | viability, T/C [8] 75.9% | viability, T/C [9] 74.2% | viability, T/C [10] 84.7% | viability, T/C [11] 33.4% | viability, T/C [13] 56.2% | viability, T/C [14] 53.3% | viability, T/C [15] 57.4% | viability, T/C [16] 52% | viability, T/C [17] 12.1% | viability, T/C [19] 32.4% | viability, T/C [20] 37.1% | viability, T/C [21] 33.6% | viability, T/C [22] 33.7% | viability, T/C [23] 6.65% | viability, T/C [25] 21.2% | viability, T/C [26] 20% | viability, T/C [27] 19.9% | viability, T/C [28] 20.9% | viability, T/C [31] 18.6% | viability, T/C [32] 19.7% | viability, T/C [33] 16.1% | viability, T/C [34] 16.4% | viability, T/C [37] 16.6% | viability, T/C [38] 15.1% | viability, T/C [39] 16.5%
1060 nM: IC50 [2]
2020 nM: IC50 [1]

CC1(O)CCCC1n1c(=O)c(C(F)F)cc2cnc(NC3CCN(S(C)(=O)=O)CC3)nc21 (stereo not given)
4.69 µM [middle of 4 runs]: IC50 (curve of compound)
inactive: viability, T/C (compound 0.0316 µM) 70.6% [middle of 4 runs] | viability, T/C (compound 0.1 µM) 66.3% [middle of 4 runs] | viability, T/C (compound 0.316 µM) 64.3% [middle of 4 runs] | viability, T/C (compound 1 µM) 70% [middle of 4 runs] | viability, T/C (compound 3.16 µM) 63.5% [middle of 4 runs] | viability, T/C (compound 10 µM) 27% [middle of 4 runs]

CCN1CCN(Cc2ccc(Nc3ncc(F)c(-c4cc(F)c5nc(C)n(C(C)C)c5c4)n3)nc2)CC1
inactive: viability, T/C (compound 0.00316 µM) 102% [middle of 4 runs] | viability, T/C (compound 0.01 µM) 99.6% [middle of 4 runs] | viability, T/C (compound 0.0316 µM) 93.5% and 96.4% and 101% (2×) | viability, T/C (compound 0.1 µM) 100% [middle of 4 runs] | viability, T/C (compound 0.316 µM) 113% [middle of 4 runs] | viability, T/C (compound 1 µM) 125% [middle of 4 runs]
> 1000 nM: IC50 (curve of compound)
